Structures are written as SMILES. Counter-ions that a name gives are not always drawn.

Experimental findings from US8476265B2, “Compounds-801” (AstraZeneca AB, priority 2010, dated 2013) are described below.

One experiment has as its target T1, Adrenergic β2 (Homo sapiens, UniProt P07550).
T1 construct: Adherent H292 cells are removed from tissue culture flasks by treatment with Accutase™ cell detachment solution; endogenous in cells; host or cells: H292 cells
Kind of experiment: Adrenergic β2 mediated cAMP production in H292 cells (AlphaScreen), concentration response. Type of experiment: cell-based. The following applies: for EC50: 60 min, 300 μM rolipram, read-out: β2 pEC50 (converted); for β2 Intrinsic Activity: fraction relative to the maximum activity determined for formoterol. Summed up: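 H292 cells seeded overnight, pretreated 10 min with rolipram (300 μM final), then exposed to compounds 60 min at room temperature in HBSS/10 mM HEPES pH 7.4/5 mM glucose, 1% DMSO. Lysate cAMP quantified by AlphaScreen against a standard curve; four-parameter fit gives pEC50 and intrinsic activity relative to formoterol maximum.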
In general terms: cAMP levels reflect the balance of adenylyl cyclase and phosphodiesterase activity.

The target of experiment [1] is T2, human muscarinic acetylcholine M3 receptor (Homo sapiens, UniProt P20309).
T2 construct: expressed in transfected cells; host or cells: CHO-K1 (Chinese Hamster Ovary) cell membranes
T2 sequence (P20309 whole entry): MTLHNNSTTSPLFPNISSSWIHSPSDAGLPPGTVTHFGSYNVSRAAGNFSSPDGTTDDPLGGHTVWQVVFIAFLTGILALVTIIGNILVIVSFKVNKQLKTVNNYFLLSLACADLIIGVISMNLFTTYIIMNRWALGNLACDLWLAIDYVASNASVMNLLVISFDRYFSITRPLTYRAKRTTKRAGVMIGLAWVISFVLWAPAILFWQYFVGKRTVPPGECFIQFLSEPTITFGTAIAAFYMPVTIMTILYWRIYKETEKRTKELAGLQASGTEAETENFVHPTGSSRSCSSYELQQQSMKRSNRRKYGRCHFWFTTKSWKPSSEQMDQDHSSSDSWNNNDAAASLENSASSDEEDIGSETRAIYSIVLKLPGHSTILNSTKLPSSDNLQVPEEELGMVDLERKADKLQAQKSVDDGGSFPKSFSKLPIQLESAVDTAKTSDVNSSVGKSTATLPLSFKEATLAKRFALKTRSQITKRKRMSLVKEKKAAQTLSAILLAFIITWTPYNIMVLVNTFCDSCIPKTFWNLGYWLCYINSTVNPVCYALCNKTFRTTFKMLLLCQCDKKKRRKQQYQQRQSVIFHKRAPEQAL
Put plainly: Muscarinic 3 receptor binding assay ([3H]NMS competition, SPA), pIC50. As to conditions: [3H]NMS 0.1 nM, CHO-K1 cell membranes expressing human M3 receptor. In short, it runs like this:
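Competition of [3H]NMS (0.1 nM, quarter Kd) binding to CHO-K1 membranes expressing human M3, SPA format, in 20 mM HEPES pH 7.4, 5 mM MgCl2, 0.1% BSA, 1% DMSO. Incubated 16 h at room temperature; non-specific binding with 1 μM atropine; pIC50 from specific binding.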

T1 sequence (P07550 whole entry): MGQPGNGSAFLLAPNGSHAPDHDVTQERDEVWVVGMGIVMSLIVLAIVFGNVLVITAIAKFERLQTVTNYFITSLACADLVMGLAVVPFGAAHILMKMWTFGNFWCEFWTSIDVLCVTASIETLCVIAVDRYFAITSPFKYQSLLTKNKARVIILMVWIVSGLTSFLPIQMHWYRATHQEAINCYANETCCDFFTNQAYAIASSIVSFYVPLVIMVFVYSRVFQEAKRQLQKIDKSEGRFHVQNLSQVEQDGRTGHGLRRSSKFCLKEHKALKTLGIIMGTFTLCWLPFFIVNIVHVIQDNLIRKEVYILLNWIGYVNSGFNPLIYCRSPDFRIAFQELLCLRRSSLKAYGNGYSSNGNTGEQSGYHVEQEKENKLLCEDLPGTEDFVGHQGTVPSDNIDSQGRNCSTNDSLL

Consider `CCc1nc(C(=O)N2CCOC3(CCN(CCc4ccc(CCOCCC(=O)N(CCCCCCO)CCNCCc5ccc(O)c6[nH]c(=O)sc56)cc4)CC3)C2)cs1` [Example 76, 3-(4-(2-(4-(2-Ethylthiazole-4-carbonyl)-1-oxa-4,9-diazaspiro[5.5]undecan-9-yl)ethyl)phenethoxy)-N-(2-(2-(4-hydroxy-2-oxo-2,3-dihydrobenzo[d]thiazol-7-yl)ethylamino)ethyl)-N-(6-hydroxyhexyl)propanamide diformate], for which, at Adrenergic β2, the EC50 was 50.1 nM and the “β2 Intrinsic Activity” value is given as 1.0. The IC50 (in general, the point on the concentration scale where inhibition reaches its midpoint) in experiment [1] was 0.631 nM.
Taken in the same sequence, the figures for `CCN(CCNCCc1ccc(O)c2[nH]c(=O)sc12)C(=O)CCOCCc1cccc(OCCCN2CCC3(CC2)CN(C(=O)c2csc(C(C)C)n2)CCO3)c1` [Example 61, N-Ethyl-N-(2-(2-(4-hydroxy-2-oxo-2,3-dihydrobenzo[d]thiazol-7-yl)ethylamino)ethyl)-3-(3-(3-(4-(2-isopropylthiazole-4-carbonyl)-1-oxa-4,9-diazaspiro[5.5]undecan-9-yl)propoxy)phenethoxy)propanamide ditrifluoroacetate] were 20 nM, 0.7 and 2 nM.
As for `CCCCN(CCNCCc1ccc(O)c2c1OCC(=O)N2)C(=O)CCOCCc1cccc(CCN2CCC3(CC2)CN(C(=O)c2csc(C(C)C)n2)CCO3)c1` [Example 34a, N-Butyl-N-(2-(2-(5-hydroxy-3-oxo-3,4-dihydro-2H-benzo[b][1,4]oxazin-8-yl)ethylamino)ethyl)-3-(3-(2-(4-(2-isopropylthiazole-4-carbonyl)-1-oxa-4,9-diazaspiro[5.5]undecan-9-yl)ethyl)phenethoxy)propanamide Sulphate salt Modification A], at Adrenergic β2, the EC50 was 15.8 nM. This molecule also had an IC50 in experiment [1] of 0.631 nM.
`CC(C)c1nc(C(=O)N2CCOC3(CCN(CCc4cccc(CCOCCC(=O)N(CCNCCc5ccc(O)c6c5OCC(=O)N6)Cc5ccccc5)c4)CC3)C2)cs1` [Example 41, N-Benzyl-N-(2-(2-(5-hydroxy-3-oxo-3,4-dihydro-2H-benzo[b][1,4]oxazin-8-yl)ethylamino)ethyl)-3-(3-(2-(4-(2-isopropylthiazole-4-carbonyl)-1-oxa-4,9-diazaspiro[5.5]undecan-9-yl)ethyl)phenethoxy)propanamide ditrifluoroacetate]: on Adrenergic β2, the EC50 was 20 nM and the “β2 Intrinsic Activity” value was 0.9. In experiment [1], this molecule had an IC50 of 0.794 nM.
The matching figures for `CCCCN(CCCNCCc1ccc(O)c2c1OCC(=O)N2)C(=O)CCOCCc1cccc(CN2CCC3(CC2)CN(C(=O)c2csc(CC)n2)CCO3)c1Cl` [Example 80]: 63.1 nM, 0.5 and 0.631 nM.
For `CCCc1cc(C(=O)N2CCOC3(CCN(Cc4cccc(CCOCCC(=O)N(CCNCCc5ccc(O)c6c5OCC(=O)N6)C5CCCCC5)c4)CC3)C2)cs1` [Example 93, N-Cyclohexyl-N-(2-(2-(5-hydroxy-3-oxo-3,4-dihydro-2H-benzo[b][1,4]oxazin-8-yl)ethylamino)ethyl)-3-(3-((4-(5-propylthiophene-3-carbonyl)-1-oxa-4,9-diazaspiro[5.5]undecan-9-yl)methyl)phenethoxy)propanamide], on Adrenergic β2, the EC50 is 251 nM and the “β2 Intrinsic Activity” value amounted to 1.1. Further, in experiment [1], the IC50 is 0.2 nM.
Regarding `CC(C)CN(CCNCCc1ccc(O)c2c1OCC(=O)N2)C(=O)CCOCCc1cccc(CCN2CCC3(CC2)CN(C(=O)c2csc(C(C)C)n2)CCO3)c1` [Example 40, N-(2-(2-(5-Hydroxy-3-oxo-3,4-dihydro-2H-benzo[b][1,4]oxazin-8-yl)ethylamino)ethyl)-N-Isobutyl-3-(3-(2-(4-(2-isopropylthiazole-4-carbonyl)-1-oxa-4,9-diazaspiro[5.5]undecan-9-yl)ethyl)phenethoxy)propanamide ditrifluoroacetate], at Adrenergic β2, the EC50 is 20 nM and the “β2 Intrinsic Activity” value was 1.0. The molecule also showed an IC50 in experiment [1] of 1.26 nM.
The matching figures for `CCCCN(CCNCCc1ccc(O)c2c1OCC(=O)N2)C(=O)CCOCCc1ccc(CCN2CCC3(CC2)CN(C(=O)c2csc(C(C)C)n2)CCO3)cc1` [Example 4, N-Butyl-N-(2-(2-(5-hydroxy-3-oxo-3,4-dihydro-2H-benzo[b][1,4]oxazin-8-yl)ethylamino)ethyl)-3-(4-(2-(4-(2-isopropylthiazole-4-carbonyl)-1-oxa-4,9-diazaspiro[5.5]undecan-9-yl)ethyl)phenethoxy)propanamide ditrifluoroacetate]: 25.1 nM, 0.8 and 0.794 nM.
Take `CC(C)(C)c1nc(C(=O)N2CCOC3(CCN(Cc4cccc(CCOCCC(=O)N(CCNCCc5ccc(O)c6c5OCC(=O)N6)C5CCCCC5)c4)CC3)C2)cs1` [Example 86, 3-(3-((4-(2-tert-Butylthiazole-4-carbonyl)-1-oxa-4,9-diazaspiro[5.5]undecan-9-yl)methyl)phenethoxy)-N-cyclohcxyl-N-(2-(2-(5-hydroxy-3-oxo-3,4-dihydro-2H-benzo[b][1,4]oxazin-8-yl)ethylamino)ethyl)propanamide]: at Adrenergic β2, the EC50 is 158 nM and the “β2 Intrinsic Activity” value is on record as 1.0. In experiment [1], this molecule showed an IC50 of 1.58 nM.
The matching figures for `CC(C)c1nc(C(=O)N2CCOC3(CN(CCc4cccc(CCOCCC(=O)N(CCNCCc5ccc(O)c6c5OCC(=O)N6)C5CCCCC5)c4)C3)C2)cs1` [Example 176, N-Cyclohexyl-N-(2-(2-(5-hydroxy-3-oxo-3,4-dihydro-2H-benzo[b][1,4]oxazin-8-yl)ethylamino)ethyl)-3-(3-(2-(8-(2-isopropylthiazole-4-carbonyl)-5-oxa-2,8-diazaspiro[3.5]nonan-2-yl)ethyl)phenethoxy)propanamide, trifluoroacetate salt]: 15.8 nM, 1.2 and 2.51 nM.
As to `CC(C)c1cccc(C(=O)N2CCOC3(CCN(Cc4cccc(CCOCCC(=O)N(CCNCCc5ccc(O)c6c5OCC(=O)N6)C5CCCCC5)c4)CC3)C2)n1` [Example 97, N-Cyclohexyl-N-(2-(2-(5-hydroxy-3-oxo-3,4-dihydro-2H-benzo[b][1,4]oxazin-8-yl)ethylamino)ethyl)-3-(3-((4-(6-isopropylpicolinoyl)-1-oxa-4,9-diazaspiro[5.5]undecan-9-yl)methyl)phenethoxy)propanamide], at Adrenergic β2, the EC50 is 158 nM and the “β2 Intrinsic Activity” value is recorded as 1.0. Moreover, the IC50 in experiment [1] is 1.26 nM.
For the molecule `COCCCN(CCNCCc1ccc(O)c2c1OCC(=O)N2)C(=O)CCOCCc1cccc(CN2CCC3(CC2)CN(C(=O)c2csc(C(C)C)n2)CCO3)c1Cl` [Example 71, 3-(2-Chloro-3-((4-(2-isopropylthiazole-4-carbonyl)-1-oxa-4,9-diazaspiro[5.5]undecan-9-yl)methyl)phenethoxy)-N-(2-(2-(5-hydroxy-3-oxo-3,4-dihydro-2H-benzo[b][1,4]oxazin-8-yl)ethylamino)ethyl)-N-(3-methoxypropyl)propanamide ditrifluoroacetate], at Adrenergic β2, the EC50 is 50.1 nM and the “β2 Intrinsic Activity” value stood at 1.0. In experiment [1], the IC50 was 0.251 nM.
Taken in the same sequence, the figures for `CCN(CCNCCc1ccc(O)c2[nH]c(=O)sc12)C(=O)CCOCCc1cc(CN2CCC3(CC2)CN(C(=O)c2csc(C)n2)CCO3)ccc1Cl` [Example 46, 3-(2-Chloro-5-((4-(2-methylthiazole-4-carbonyl)-4-oxa-4,9-diazaspiro[5.5]undecan-9-yl)methyl)phenethoxy)-N-ethyl-N-(2-(2-(4-hydroxy-2-oxo-2,3-dihydrobenzo[d]thiazol-7-yl)ethylamino)ethyl)propanamide ditrifluoroacetate] were 398 nM, 0.9 and 0.316 nM.
Taken in the same sequence, the figures for `O=C1COc2c(CCNCCN(C(=O)CCOCCc3cccc(CN4CCC5(CC4)CN(C(=O)c4ccc6occc6c4)CCO5)c3)C3CCCCC3)ccc(O)c2N1` [Example 84, 3-(3-((4-(Benzofuran-5-carbonyl)-1-oxa-4,9-diazaspiro[5.5]undecan-9-yl)methyl)phenethoxy)-N-cyclohexyl-N-(2-(2-(5-hydroxy-3-oxo-3,4-dihydro-2H-benzo[b][1,4]oxazin-8-yl)ethylamino)ethyl)propanamide] were 200 nM, 1.0 and 0.2 nM.
`CCN(CCNCCc1ccc(O)c2[nH]c(=O)sc12)C(=O)CCOCCc1cccc(CCN2CCC3(CC2)CN(C(=O)c2csc(C(C)C)n2)CCO3)c1` [Example 35, N-Ethyl-N-(2-(2-(4-hydroxy-2-oxo-2,3-dihydrobenzo[d]thiazol-7-yl)ethylamino)ethyl)-3-(3-(2-(4-(2-isopropylthiazole-4-carbonyl)-1-oxa-4,9-diazaspiro[5.5]undecan-9-yl)ethyl)phenethoxy)propanamide ditrifluoroacetate]: on Adrenergic β2, the EC50 is 3.16 nM and the “β2 Intrinsic Activity” value amounted to 1.0. In addition, the IC50 in experiment [1] is 3.98 nM.
Taken in the same sequence, the figures for `CCCCN(CCNCCc1ccc(O)c2c1OCC(=O)N2)C(=O)CCOCCc1ccccc1OCCN1CCC2(CC1)CN(C(=O)c1csc(C(C)C)n1)CCO2` [Example 178, N-butyl-N-(2-(2-(5-hydroxy-3-oxo-3,4-dihydro-2H-benzo[b][1,4]oxazin-8-yl)ethylamino)ethyl)-3-(2-(2-(4-(2-isopropylthiazole-4-carbonyl)-1-oxa-4,9-diazaspiro[5.5]undecan-9-yl)ethoxy)phenethoxy)propanamide trifluoroacetate salt] were 501 nM, 1.2 and 12.6 nM.
